The NIST ThermoML archive (doi:10.1016/j.jct.2015.08.002)

Assay: mn = molality of the nth substance listed, in mol/kg
Conditions: 298 K, Wilhelmi plate tensiometer

CCCCCCCCCCCC(=O)[O-].[Na+] [sodium dodecanoate] + O
Conditions | surface tension liquid-gas [mN/m]
m1 = 0.001 | 64.1
m1 = 0.002 | 62.2
m1 = 0.003 | 57.6
m1 = 0.004 | 54.4
m1 = 0.005 | 54.5
m1 = 0.006 | 49.9
m1 = 0.007 | 45.8
m1 = 0.008 | 44.9
m1 = 0.009 | 44
m1 = 0.01 | 44.2
m1 = 0.0105 | 41.7
m1 = 0.011 | 41.6
m1 = 0.012 | 40.9
m1 = 0.013 | 37.4
m1 = 0.014 | 37.3
m1 = 0.015 | 37.9

CCCCCCCCCCCCP(=O)([O-])[O-].[Na+].[Na+] [sodium dodecylphosphonate] + O
Conditions | surface tension liquid-gas [mN/m]
m1 = 0.002 | 66.6
m1 = 0.004 | 58.5
m1 = 0.006 | 52.9
m1 = 0.008 | 53.5
m1 = 0.01 | 52.4
m1 = 0.012 | 49.6
m1 = 0.014 | 47.4
m1 = 0.016 | 44.4
m1 = 0.017 | 44
m1 = 0.0175 | 40.9
m1 = 0.018 | 40.1
m1 = 0.0185 | 39.4
m1 = 0.019 | 40.4
m1 = 0.02 | 39.3
m1 = 0.021 | 39.6
m1 = 0.025 | 38.2
m1 = 0.04 | 36.9
m1 = 0.05 | 39.3

CCCCCCCC/C=C\CCCCCCCC(=O)[O-].[Na+] [sodium oleate] + O
Conditions | surface tension liquid-gas [mN/m]
m1 = 5e-06 | 62.8
m1 = 1e-05 | 58
m1 = 2e-05 | 51.8
m1 = 3e-05 | 51.2
m1 = 4e-05 | 50.7
m1 = 5e-05 | 49.9
m1 = 0.0001 | 42
m1 = 0.0003 | 32.9
m1 = 0.0005 | 29.4
m1 = 0.0009 | 26.6
m1 = 0.0013 | 25.6
m1 = 0.0015 | 25.4
m1 = 0.0018 | 25.1
m1 = 0.002 | 25.2
m1 = 0.003 | 25.1
